Reference: publication PMC12431657, “Discovery and mechanistic insights of dibenzoylmethane as a broad spectrum inhibitor of coronavirus” (PLOS Pathogens, 2025)
pEC50: −log10 of the molar value. “And” between values parts separate entries of the source, which are not always exact repeats. Identical values can stand only once. Like-named read-outs stand apart in the source and are kept apart here. Peptide text beside a SMILES is read from it. * marks the point of attachment. Cbz = O=C(OCc1ccccc1)*; CH2F = FC*

Assays:
Huh-7 cells [1] = test system: Huh-7 cells; parameters: unit not given beside the values
Huh-7 cells [2] = assay: Cytotoxicity assay (CCK-8), Huh-7 cells
HCoV-OC43 [3] = assay: Antiviral activity in vitro, qRT-PCR, HCoV-OC43 in Huh-7 cells; type: cell-based; conditions: for HCoV-OC43, Huh-7: inhibition at the concentration (Fig2B): replicates
HCoV-229E [4] = assay: Antiviral activity in vitro, viral RNA copies by qRT-PCR, HCoV-229E in Huh-7 cells; type: cell-based; conditions: for EC50 (229E, Huh-7): inhibition at the concentration: replicates
HCoV-229E [5] = assay: Antiviral activity in vitro, qRT-PCR, HCoV-229E in MRC-5 cells; type: cell-based; conditions: for HCoV-229E, MRC-5: inhibition at the concentration (Fig2B): replicates
HCoV-OC43 [6] = test system: HCoV-OC43
HCoV-OC43 [7] = assay: Antiviral activity in vitro, qRT-PCR, HCoV-OC43 in RD cells; type: cell-based; conditions: for EC50 (OC43, RD): inhibition at the concentration: replicates
airway inflammation = conditions: 50 mpk; cited from earlier work
HCoV-OC43 [8] = assay: HCoV-OC43 nucleocapsid protein and caspase-6 in infected cells (Western blot); type: cell-based; conditions: cells pretreated with serially diluted compound
HCoV-OC43 [9] = type: cell-based
caspase-6 = target: T1, caspase-6 (Homo sapiens, UniProt P55212); type: cell-based
T1 construct: endogenous in cells
T1 sequence (P55212 24-293): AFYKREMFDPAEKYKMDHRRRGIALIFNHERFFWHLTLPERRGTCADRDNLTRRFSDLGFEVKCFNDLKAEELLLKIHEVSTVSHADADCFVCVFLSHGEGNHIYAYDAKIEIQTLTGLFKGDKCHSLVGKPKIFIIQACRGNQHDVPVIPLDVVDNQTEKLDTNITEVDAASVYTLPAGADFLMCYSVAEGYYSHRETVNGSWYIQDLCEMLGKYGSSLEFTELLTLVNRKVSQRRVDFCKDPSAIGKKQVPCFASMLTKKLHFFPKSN

Compound: COc1ccc2cc1Oc1ccc(cc1)C[C@H]1c3cc(c(OC)cc3CCN1C)Oc1c(OC)c(OC)cc3c1[C@H](C2)N(C)CC3 [tetrandrine]
- CC50 (Huh-7): dose-response value per replicate (Huh-7 cells [1]; human): 114.8
- selectivity index (SI) (Huh-7 cells [2]): below 25

Compound: C/C=C(/C)C(=O)OC(C)(C)[C@@H]1Cc2c(ccc3ccc(=O)oc23)O1 [Columbianadin, columbianadin]
- pEC50 (HCoV-OC43 [3]; Betacoronavirus 1, OC43, Huh-7, 24 h, read-out: EC50 HCoV-OC43 (Huh-7)): 6.72
- HCoV-OC43, Huh-7: inhibition at the concentration (Fig2B) (HCoV-OC43 [3]; conc. 0.1 (unit not given)): 48.4 and 50.8 (2×)
- HCoV-OC43, Huh-7: inhibition at the concentration (Fig2B) (HCoV-OC43 [3]; conc. 0.2 (unit not given)): 30.0 and 36.0 and 38.1
- HCoV-OC43, Huh-7: inhibition at the concentration (Fig2B) (HCoV-OC43 [3]; conc. 0.7 (unit not given)): 73.5 and 75.0 and 75.6
- HCoV-OC43, Huh-7: inhibition at the concentration (Fig2B) (HCoV-OC43 [3]; conc. 2.2 (unit not given)): 94.2 and 94.1 and 94.4
- HCoV-OC43, Huh-7: inhibition at the concentration (Fig2B) (HCoV-OC43 [3]; conc. 6.7 (unit not given)): 98.5 (2×) and 98.6
- HCoV-OC43, Huh-7: inhibition at the concentration (Fig2B) (HCoV-OC43 [3]; conc. 20.0 (unit not given)): 98.4 and 98.3 (2×)
- pEC50 (HCoV-229E [4]; Human coronavirus 229E, Huh-7, 24 h, read-out: EC50 HCoV-229E (Huh-7)): > 7.10
- EC50 (229E, Huh-7): inhibition at the concentration (HCoV-229E [4]; conc. 0.1 (unit not given)): 58.8 and 59.6 and 58
- EC50 (229E, Huh-7): inhibition at the concentration (HCoV-229E [4]; conc. 0.2 (unit not given)): 70.5 and 77.4 and 76.1
- EC50 (229E, Huh-7): inhibition at the concentration (HCoV-229E [4]; conc. 0.7 (unit not given)): 68 and 72.5 and 61.2
- EC50 (229E, Huh-7): inhibition at the concentration (HCoV-229E [4]; conc. 2.2 (unit not given)): 74.2 and 70.6 and 86.9
- EC50 (229E, Huh-7): inhibition at the concentration (HCoV-229E [4]; conc. 6.7 (unit not given)): 89.7 and 91.5 and 80.4
- EC50 (229E, Huh-7): inhibition at the concentration (HCoV-229E [4]; conc. 20 (unit not given)): 92.4 and 94.9 and 95
- pEC50 (HCoV-229E [5]; Human coronavirus 229E, MRC5, 24 h, read-out: EC50 HCoV-229E (MRC-5)): 5.81
- HCoV-229E, MRC-5: inhibition at the concentration (Fig2B) (HCoV-229E [5]; conc. 0.1 (unit not given)): 35.3 and 18.1 and 41.4
- HCoV-229E, MRC-5: inhibition at the concentration (Fig2B) (HCoV-229E [5]; conc. 0.2 (unit not given)): 32.0 and 58.2
- HCoV-229E, MRC-5: inhibition at the concentration (Fig2B) (HCoV-229E [5]; conc. 0.7 (unit not given)): 17.5 and 18.6 and 52.2
- HCoV-229E, MRC-5: inhibition at the concentration (Fig2B) (HCoV-229E [5]; conc. 2.2 (unit not given)): 63.2 and 52.3 and 54.8
- HCoV-229E, MRC-5: inhibition at the concentration (Fig2B) (HCoV-229E [5]; conc. 6.7 (unit not given)): 83.3 and 82.1 and 80.5
- HCoV-229E, MRC-5: inhibition at the concentration (Fig2B) (HCoV-229E [5]; conc. 20.0 (unit not given)): 94.9 and 92.9 and 95.1
- Body weight changes (HCoV-OC43 [6]; Columbianadin 50 mpk oral QD, day 0, one value per mouse): 99.0 (4×) and 102.0 (2×)
- number of viral RNA copies in HCoV-OC43-infected mice (HCoV-OC43 [6]; columbianadin 50 mpk QD, erythromycin estolate 300 mpk QD): did not significantly reduce
- pEC50 (HCoV-OC43 [7]; Betacoronavirus 1, OC43, RD, 24 h, read-out: EC50 HCoV-OC43 (RD)): 5.65
- EC50 (OC43, RD): inhibition at the concentration (HCoV-OC43 [7]; conc. 0.1 (unit not given)): -25.3 and -42.7 and -34.3
- EC50 (OC43, RD): inhibition at the concentration (HCoV-OC43 [7]; conc. 0.7 (unit not given)): -23.9 and 2.7 and -3.5
- EC50 (OC43, RD): inhibition at the concentration (HCoV-OC43 [7]; conc. 2.2 (unit not given)): 49.6 and 48.7 and 52.3
- EC50 (OC43, RD): inhibition at the concentration (HCoV-OC43 [7]; conc. 6.7 (unit not given)): 93.7 and 94.2 and 94.0
- EC50 (OC43, RD): inhibition at the concentration (HCoV-OC43 [7]; conc. 20 (unit not given)): 99.8
- airway inflammation in mice (airway inflammation): suppress airway inflammation

Compound: COc1c(CC=C(C)C)c(O)cc2oc(=O)c3c4ccc(O)cc4oc3c12 [neoglycyrol]
- CC50 (Huh-7): dose-response value per replicate (Huh-7 cells [1]): 37.8
- selectivity index (SI) (Huh-7 cells [2]): below 25

Compound: CC[C@H](C)[C@H](NC(=O)[C@H](CCC(=O)OC)NC(=O)[C@@H](NC(=O)OCc1ccccc1)C(C)C)C(=O)N[C@@H](CC(=O)OC)C(=O)CF [Z-VEID-FMK, reference compound] (Cbz-VE(OMe)ID(OMe)-CH2F)
- virus replication (nucleocapsid protein, Western blot) (HCoV-OC43 [8]): inhibited virus replication
- antiviral activity in CASP6 knockout cell pools (HCoV-OC43 [9]; RD cells): decreased
- Viral inhibition (Fig5K) (HCoV-OC43 [9]; concentration 2, RD-Scramble cells): 58.3 and 64.9 and 64.7
- Viral inhibition (Fig5K) (HCoV-OC43 [9]; concentration 20, RD-Scramble cells): 67.9 and 79.5 and 81.6
- Caspase-6 activity (Fig5J) (caspase-6; time point 0, replicates): 8.3 and 9.2 and 8.8
- Caspase-6 activity (Fig5J) (caspase-6; time point 2, replicates): 12.5 and 11.5 and 12.1
- Caspase-6 activity (Fig5J) (caspase-6; time point 4, replicates): 11.7 and 13.0 (2×)
- Caspase-6 activity (Fig5J) (caspase-6; time point 6, replicates): 9.9 and 10.2 and 9.5
- Caspase-6 activity (Fig5J) (caspase-6; time point 8, replicates): 9.8 and 9.0 and 8.1
